Assay results taken from PubChem BioAssay (NCI).
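Dose response: 5 concentrations. Exposure: 48 h. Format: 96-well plates. Endpoint: linear interpolation; highest concentration if not reached. TGI: concentration producing complete growth inhibition.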

Columns and labels:
Assay in all cases: NCI tumour cell line growth inhibition, 48 h
A549 NSCLC = tested on: A549 NSCLC
HCC-2998 colon = tested on: HCC-2998 colon
OVCAR-3 ovarian = tested on: OVCAR-3 ovarian
SF-268 CNS = tested on: SF-268 CNS
SN12C renal = tested on: SN12C renal

| Compound | TGI (A549 NSCLC) [µM] | TGI (HCC-2998 colon) [µM] | TGI (OVCAR-3 ovarian) [µM] | TGI (SF-268 CNS) [µM] | TGI (SN12C renal) [µM] |
| --- | --- | --- | --- | --- | --- |
| CCOC(=O)N1CC2(C(=O)OC)C=CC1C(C(=O)OC)C2 (stereo not given) | > 100 | > 100 | > 100 | > 100 | > 100 |
| Nc1ccn([C@H]2CO[C@@H](CO)O2)c(=O)n1 | > 100 | > 100 | > 100 | > 100 | > 100 |
| CC1=Nc2nc3ccccc3n2C(C)(C)C1 | > 100 | – | > 100 | > 100 | – |
| O=C(CC(=O)N(C(=O)c1ccccc1)c1ccc(Cl)cc1)N/N=C\c1ccccc1O | > 100 | > 100 | > 100 | > 100 | > 100 |
| COC(=O)[C@@]12CC[C@]1(C(=O)OC)C1C(C)=CC(=O)O[C@@]12C (stereo not given in full) | > 100 | > 100 | > 100 | > 100 | > 100 |
| CC(=O)c1ccc(N2CCN(c3c(O)c4c(c(O)c3Cl)C(=O)C=CC4=O)CC2)cc1 | 34.8 | 37.4 | 18.2 | 8.12 | – |
| COc1ccc(-c2nc(N)c(C#N)c3c2CCSc2ccc(C)cc2-3)cc1OC | > 100 | > 57.8 | > 100 | 93.9 | 44.4 |
| Cn1c(=O)oc2cc(C(=S)N3CCC(Cc4ccccc4)CC3)ccc21 | – | – | > 100 | > 100 | > 100 |
| CC1(C)N(OC2CCCCO2)C(c2ccccc2)C(c2ccccc2)=[N+]1[O-] (stereo not given) | > 100 | > 100 | > 100 | – | > 100 |
| C[C@@H]1CCC2[C@@H](C)[C@H](O[C@H]3O[C@@H]4O[C@@]5(C)CCC6[C@H](C)CCC([C@H]3C)[C@]64OO5)O[C@@H]3O[C@@]4(C)CCC1[C@@]23OO4 (stereo not given in full) | 32.3 | 14.5 | 18.3 | 23.8 | 15.6 |
| CCCCCCc1cc2cc(C(=O)Nc3ccccc3F)c(=N)oc2cc1O | 26.9 | 48.1 | 25.9 | 59.9 | – |
| O=c1c2c(sc3ccccc13)NCN(CCc1ccccc1)C2 | > 100 | 56.9 | > 100 | – | > 100 |
| CC1=NN(c2nc(N)nc(C(C)Sc3cc(Cl)c(C)cc3S(N)(=O)=O)n2)C(C)(C)C1 (stereo not given) | > 10 | > 10 | > 10 | > 10 | > 10 |
| OC(c1ccc(F)cc1)C(F)(F)c1nc(-c2ccccc2)no1 (stereo not given) | – | – | 30.6 | 62.9 | 39.8 |
| COc1c(C(=O)/C(=N/Nc2ccccc2)C(C)=O)c(O)c(OC)c2occc12 | > 100 | > 100 | > 100 | > 100 | > 100 |
| CC(=O)Nc1ccc2c3c(cc(O)c2c1)N(C(=O)CCCC(=O)Nc1ccc2c4c(cc(O)c2c1)N(C(=O)OC(C)(C)C)CC4CCl)CC3CCl (stereo not given) | > 50 | 1.91 | 2.89 | – | > 13.2 |
| Brc1ccccc1/C=C\C1(c2ccccc2)OCCO1 | 32.8 | 32.2 | 25.5 | 16 | 27.4 |
| CC(=O)c1c2c(cc3c1CC1(Cc4cc5c(cc4C1=O)CCC5)C3)CCC2 (stereo not given) | > 100 | > 100 | > 100 | > 100 | > 100 |
| CCCCOP(=O)(OCCCC)/C(C#N)=C/c1ccc(C)o1 | > 100 | > 100 | 57.6 | > 100 | > 100 |
| c1ccc2c(c1)ccc1ncccc12 | > 100 | > 100 | > 100 | > 100 | > 100 |
| COC(=O)C(/C(=N/N)C(=O)Nc1ccc(C)c(C)c1)c1nc2ccc(Cl)cc2[nH]c1=O (stereo not given) | > 100 | > 100 | > 100 | > 100 | > 100 |
| C/C(=N\Nc1nc2ccccc2[nH]1)c1ccncn1 | > 100 | > 79.5 | 13 | – | 10.2 |
| OC(c1ccsc1)c1cc2ccccc2s1 (stereo not given) | > 10 | > 10 | > 10 | > 10 | > 10 |
| O=C(O)CN1CCNCCN(CC(=O)O)CCNCC1 | > 100 | > 100 | > 100 | > 100 | > 100 |
| Cc1cc(=O)oc2c(CNC(C)C(=O)O)c(O)ccc12 (stereo not given) | > 100 | > 100 | > 100 | > 100 | > 100 |

| Compound | TGI (A549 NSCLC) [µM] | TGI (HCC-2998 colon) [µM] | TGI (OVCAR-3 ovarian) [µM] | TGI (SF-268 CNS) [µM] | TGI (SN12C renal) [µM] |
| --- | --- | --- | --- | --- | --- |
| CSC(=NC1CC(n2cc(C)c(=O)[nH]c2=O)OC1CO)NC#N (stereo not given) | > 100 | > 100 | > 100 | > 100 | > 100 |
| O=c1n(CCCN2CCN(c3cccc(Cl)c3)CC2)nc2n1-c1ccc3ccccc3c1SC2 | > 100 | – | > 100 | – | > 100 |
| C=CC1(c2ccc3ccccc3c2)OCC(CC)(CC)CO1 | > 100 | 37.3 | 51.5 | 95.6 | 44.5 |
| Cc1ccc(-c2c(C#N)c(-c3ccc([N+](=O)[O-])cc3)c(C#N)c(=O)n2NS(=O)(=O)c2ccc(C)cc2)cc1 | > 100 | > 100 | > 100 | > 100 | > 100 |
| CN(C)C(=S)N/N=C\C(=N/NC(=S)N(C)C)c1ccccc1 | > 100 | > 100 | > 23.4 | > 72.3 | > 100 |
| CCOC(=O)C1=C(OS(=O)(=O)C(F)(F)F)CCCC1 | > 100 | > 100 | > 100 | > 100 | – |
| C=C[C@@]1(C)CC2CC[C@]3(C)C(C)=CC(=O)CC3[C@]2(C)CC1O (stereo not given in full) | > 100 | > 100 | > 100 | > 100 | > 100 |
| Cn1c(=O)cc(NNc2ccc(Br)cc2)[nH]c1=O | 29.8 | 13.9 | 14.7 | – | 22.6 |
| O=C1NCC2(CCN(Cc3ccccc3)CC2)N1 | > 100 | > 100 | > 100 | > 100 | > 100 |
| Oc1ccc2ccccc2c1-c1c(Nc2ccccc2)ccc2ccccc12 | 38.9 | 29.2 | 22.7 | 31.6 | > 61.2 |
| COC(=O)c1cc(C)n2c1CS[C@@H]2c1ccccc1 | > 100 | – | > 100 | > 100 | > 100 |
| CC(C)(C)c1ccc(-c2nc3ccccc3c(=O)o2)cc1 | 86.6 | 85.5 | 62.1 | > 100 | > 100 |
| COc1ccc(-n2nnc3c(C#N)c(-c4ccccc4)c(C)n3c2=O)cc1 | > 100 | > 100 | > 100 | > 100 | > 100 |
| Cc1c(C)c(S(=O)(=O)N(CCCCCN)OCCCN)c(C)c2c1OC(C)(C)CC2 | > 100 | 6.05 | 19.9 | 28.5 | > 100 |
| O=c1[nH]c(=O)n(C2CC(O)C(COP(=O)(O)OC3CC(n4cc(F)c(=O)[nH]c4=O)OC3COP(=O)(O)OC3CC(n4cc(F)c(=O)[nH]c4=O)OC3COP(=O)(O)OC3CC(n4cc(F)c(=O)[nH]c4=O)OC3COP(=O)(O)OC3CC(n4cc(F)c(=O)[nH]c4=O)OC3COP(=O)(O)OC3CC(n4cc(F)c(=O)[nH]c4=O)OC3COP(=O)(O)OC3CC(n4cc(F)c(=O)[nH]c4=O)OC3COP(=O)(O)OC3CC(n4cc(F)c(=O)[nH]c4=O)OC3COP(=O)(O)OC3CC(n4cc(F)c(=O)[nH]c4=O)OC3COP(=O)(O)OC3CC(n4cc(F)c(=O)[nH]c4=O)OC3CO)O2)cc1F (stereo not given) | > 50 | > 50 | – | > 50 | > 50 |
| Nc1ncnc2c1ncn2[C@@H]1C[C@H]1CO | > 100 | > 100 | > 100 | – | > 100 |
| CSc1c(CC(=O)O)n(Cc2ccccc2)c2ccccc12 | > 100 | – | > 100 | > 100 | > 100 |
| COc1cc2c(c(N)c1OC)C(=O)/C(=C/c1cc(C)c(O)c(C)c1)C2 | > 100 | > 100 | – | > 100 | > 100 |
| COc1ccc(OC)c(C2CCCc3c2cnc2nc(N)nc(N)c32)c1 (stereo not given) | > 100 | – | > 100 | > 100 | > 100 |
| O=C(O)Cn1nnc2c(=O)[nH][nH]c(=O)c21 | > 100 | > 100 | > 100 | – | > 100 |
| NC(=O)Cc1ncn(-c2ccccc2)n1 | > 100 | – | > 100 | > 100 | > 100 |
| COc1ccc(/C=C/C(=O)c2nc3ccccc3[nH]2)cc1 | > 81.8 | – | 48.5 | > 64.5 | 73.9 |
| CCN(CC)CCCC(C)NC(=O)c1cc(-c2nccn2C)nc2ccc(C)cc12 (stereo not given) | > 100 | > 100 | – | > 100 | – |
| COc1ccc(-c2nc(N(C)C)c3ccccc3n2)cc1 | 46.8 | 23.5 | – | 99.3 | 39.8 |
| Cn1c(N(CCO)CCO)cnc1[N+](=O)[O-] | > 100 | – | > 100 | > 100 | – |
